The nature of assay [1]: Pooled analysis of double-blind, placebo-controlled, non-diabetic studies of at least 6 months in subjects with metabolic syndrome at baseline. Conditions: change from baseline to latest assessment after month 6 up to month 12; compared to placebo. It counts as in vivo, human. The text has this: (§1) The benefits of sibutramine therapy can be extended to subjects with metabolic syndrome. The treatment effect of sibutramine on subjects that had metabolic syndrome at study entry in the STORM trial and by a pooled analysis of double-blind, placebo-controlled, non-diabetic studies of at least 6 months duration were studied. Subjects were identified who had increased abdominal obesity (waist circumference), decreased HDL cholesterol, and elevated triglycerides (TG) at baseline, and who also completed at least 6 months of sibutramine treatment (pooled analysis subjects: 266 sibutramine, 134 placebo; STORM: 80 sibutramine). Since all subjects in the STORM trial received sibutramine for the first 6 months of the study, only subjects subsequently randomized to receive sibutramine for a longer duration were included. The analyses for each variable were based on change from baseline to latest assessment after month 6, up to and including month 12.

Assay [2] is described as follows: STORM trial, subjects that had metabolic syndrome at study entry. It counts as in vivo, human. To be noted: change from baseline to latest assessment after month 6 up to month 12.
From the text: as §1

For assay [3] the following is noted: cited from earlier work.
The conditions of assay [4]: compared to placebo; cited from earlier work.
The mark [5] stands for this setting: subjects who lost and maintained weight, compared to baseline values of all subjects.

Like-named read-outs stand apart in the source and are kept apart here.

Consider `CC(C)CC(N(C)C)C1(c2ccc(Cl)cc2)CCC1` (centres unmarked) [sibutramine, N,N-dimethyl-1-[1-(4-chlorophenyl)cyclobutyl]-3-methylbutylamine], for which, in assay [1], the HDL result was “clinically and statistically significant improvements”; the TG entry was “clinically and statistically significant improvements”; the waist circumference entry is “clinically and statistically significant improvements”; the weight loss result is “clinically and statistically significant improvements”. For the same molecule, in assay [2], the HDL result is “favorable changes”, the TG result was “favorable changes”, the waist circumference entry is reported as “favorable changes” and the weight loss entry is given as “favorable changes”. For the same molecule, in assay [3] (at two years, subjects who completed the trial, placebo 16%), the “subjects who maintained at least 80% of their month six weight loss” value is on record as 43%. For the same molecule, the “mean fasting insulin levels” value in assay [3] (at two years) is given as “reduced”. Also, in assay [3] (end of two years of treatment, placebo 21%), the “subjects who maintained ≧10% weight reduction” value is 46%. Moreover, the “subjects who maintained ≧5% weight reduction” value in assay [3] (end of two years of treatment, placebo 44%) was 69%. In addition, the mean weight loss in assay [3] (first six months of sibutramine treatment) is reported as 26 lbs. The “subjects who achieved a ≧5% weight reduction” value in assay [3] (of the 499 subjects who completed the first six months, sibutramine with reduced calorie diet and increased physical activity) is listed as 94%. In addition, in assay [3] (setting [5]), the HDL cholesterol result was “clinically and statistically significant improvements”; the triglycerides result is “clinically and statistically significant improvements”; the waist circumference entry was “clinically and statistically significant improvements”. Also, in assay [3] (subjects who lost and maintained weight), the impaired fasting glucose entry is “significantly changed”. Further, in assay [4], the HDL cholesterol entry was “significant improvements”, the “fasting blood glucose levels” value is “not significantly changed”, the insulin levels entry is listed as “significant improvements” and the triglyceride levels entry is listed as “significant improvements”. For the same molecule, in assay [4], the “waist circumference (a measure for abdominal obesity)” value was “significant improvements”.
